From patent US11369612B2, “Treatment of RSV with combination product” (Janssen Sciences Ireland Unlimited Company, priority 2017, dated 2022)

System: rgRSV224
Test: microbe, parasite or virus in culture
Assay type: cell-based, RSV
Details: for normalized data (GFP response): average across 12 replicates
Method: To evaluate their combined antiviral effect against RSV, in vitro combination studies were performed with Compound A, i.e. 3-({5-chloro-1-[3-(methylsulfonyl)propyl]-1H-indol-2-yl}methyl)-1-(2,2,2-trifluoroethyl)-1,3-dihydro-2H-imidazo[4,5-c]pyridin-2-one, and Compound B, i.e. (1S,2S)-2-[4-[7-cyclopropyl-5-[(1R)-1-methyl-3,4-dihydro-1H-isoquinoline-2-carbonyl]pyrazolo[1,5-a]pyrimidin-2-yl]-3-fluoro-phenyl]cyclopropanecarboxylic acid. In short, 9 concentrations of Compound A were combined with 6 or 7 concentrations of Compound B. HeLa cells were infected with rgRSV224, an engineered RSV strain that encodes for eGFP (Hallak L K, Spillmann D, Collins P L, Peeples M E. Glycosaminoglycan sulfation requirements for respiratory syncytial virus infection; Journal of Virology (2000), 74(22), 10508-13), in the presence of various concentrations of compound A and compound B individually or in combination.
Compound stock solutions were 5 mM in 100% DMSO. First, the compounds were serially diluted in 3-fold dilution series in DMSO. The concentration series were diluted 100-fold in cell culture medium to achieve a combination matrix. 10 μL of these compound solutions were transferred to black 384-well clear-bottom tissue-culture treated plates. Next, 10 μL of a […] HeLa cell suspension was added to achieve 3000 cells per well. Finally, 10 μL of diluted virus stock was added to achieve an MOI of 1. The final DMSO concentration of all wells was 0.5% DMSO. Each combination of compound concentrations was tested in 4 replicates on 3 separate plates, resulting in a total of 12 replicates. The plates were incubated for 3 days at 37° C. in a humidified atmosphere at 5% CO2. The GFP signal was measured with PerkinElmer EnVision apparatus using a 405 nm filter.
The method of Harbron (Statistics in Medicine, 2010, DOI:10.1002/sim3916) was used to assess synergy. Using the Loewe definition, two compounds are characterized as being additive, synergistic or antagonistic by:
where d1 and d2 represent the doses of the two compounds that in combination produce an effect y, and Dy,1 and Dy,2 represent the doses of the two compounds that produce the same effect, y, when administered as a monotherapy. A 3PL model (3-parameter log-logistic model) was used for the monotherapy dose-response data, where the baseline response was fixed at one.
Following Harbron's approach, the following models were fitted to the data: • “Additive”: assuming no interaction between the two compounds • “Uniform”: assuming a constant interaction index τ across all dose combinations • “Linear A”: assuming the interaction index linearly depends on the log 10 dose of compound A: τ=τ1+τ2 log 10(dA) • “Separate A”: assuming the interaction index τ takes a separate value for each dose of compound A
The latter two models were also considered for compound B: • “Linear B”: assuming the interaction index linearly τ depends on the log 10 dose of compound B: τ=τ1+τ2 log 10(dB) • “Separate B”: assuming the interaction index τ takes a separate value for each dose of compound B

SMILES | normalized data (GFP response) (A = 0.19, B = 0) | normalized data (GFP response) (A = 0.57, B = 0) | normalized data (GFP response) (A = 1.7, B = 0) | normalized data (GFP response) (A = 5.1, B = 0) | normalized data (GFP response) (A = 15, B = 0) | normalized data (GFP response) (A = 46, B = 0) | normalized data (GFP response) (A = 139, B = 0) | normalized data (GFP response) (A = 417, B = 0) | normalized data (GFP response) (A = 1250, B = 0) | EC50 (human respiratory syncytial virus, HeLa, read-out: EC50 (dose at τ EC50)) | normalized data (GFP response) (A = 0, B = 4.6) | normalized data (GFP response) (A = 0, B = 14) | normalized data (GFP response) (A = 0, B = 42) | normalized data (GFP response) (A = 0, B = 125) | normalized data (GFP response) (A = 0, B = 375) | normalized data (GFP response) (A = 0, B = 1125)
CS(=O)(=O)CCCn1c(Cn2c(=O)n(CC(F)(F)F)c3ccncc32)cc2cc(Cl)ccc21 [Compound A, 3-({5-chloro-1-[3-(methylsulfonyl)propyl]-1H-indol-2-yl}methyl)-1-(2,2,2-trifluoroethyl)-1,3-dihydro-2H-imidazo[4,5-c]pyridin-2-one] | 1.07 | 1.05 | 0.99 | 0.74 | 0.48 | 0.29 | 0.18 | 0.08 | 0.06 | 13.1 nM | – | – | – | – | – | –
C[C@@H]1c2ccccc2CCN1C(=O)c1cc(C2CC2)n2nc(-c3ccc([C@H]4C[C@@H]4C(=O)O)cc3F)cc2n1 [Compound B, (1S,2S)-2-[4-[7-cyclopropyl-5-[(1R)-1-methyl-3,4-dihydro-1H-isoquinoline-2-carbonyl]pyrazolo[1,5-a]pyrimidin-2-yl]-3-fluoro-phenyl]cyclopropanecarboxylic acid] | – | – | – | – | – | – | – | – | – | – | 1.13 | 1.04 | 0.37 | 0.07 | 0.00 | 0.00
